Assay results published in PMC9645260, “Small-molecule inhibitors of P-Rex guanine-nucleotide exchange factors” (Small GTPases, 2022).

Target: T1, full-length P-Rex1 (Homo sapiens, UniProt Q8TCU6)
T1 construct: Full-length N-terminally EE-tagged P-Rex1, P-Rex2, the P-Rex1 DH and DHPH domains and the P-Rex2 DH domain were produced in Sf9 cells; made in house; host or cells: Sf9 cells (baculovirus)
Experiment: Liposome-based GEF activity assay, PIP3-stimulated full-length P-Rex1
Assay type: biochemical
Details: for effect on PIP3-stimulated Rac-GEF activity of full-length P-Rex1: 1, 5 and 10 µM, Rac1 or Rac2 as substrate
Excerpt: All small GTPases and GEFs used were human recombinant proteins. EE-Rac1, EE-Rac2, GST-Cdc42 or GST-RhoA were expressed in Sf9 cells by baculoviral transduction and purified using their epitope tag in their post-translationally prenylated form using Triton X-114 phase separation, essentially as previously described. Briefly, frozen pellets from a 1 litre culture of Sf9 cells transduced with high-titre baculovirus expressing the small GTPase were resuspended in ice-cold Sf9-cell lysis buffer 1 (1x PBS, 40 mM HEPES pH 7.5 at RT, 5 mM MgCl2, 10 mM EGTA, 300 µM GDP, 1 mM DTT, 200 µM PMSF, 20 μg/ml each of leupeptin, pepstatin A, aprotinin and antipain) and lysed by sonication. Triton X-114 was added (to 1% final concentration), and samples were ultracentrifuged at 118,000 × g for 50 min at 4°C. The supernatant was warmed at 37°C until cloudy (30–60 seconds) and centrifuged at 1300 × g for 2 min at 37°C. The upper phase containing non-lipid modified GTPase was discarded and replaced with ice-cold Sf9-cell lysis buffer. The warming/centrifugation steps were repeated twice and lipid-modified GTPase resuspended in ice-cold Sf9-cell lysis buffer 1 supplemented with Triton X-100 (1% final concentration), followed by ultracentrifugation at 118,000 × g for 50 min at 4°C. For EE-tagged GTPases, supernatants were incubated with anti-EE antibody covalently coupled to protein G-Sepharose beads (anti-EE beads, Onyx Pharmaceuticals) and incubated with end-over-end rotation for 90 min on ice. Beads were washed 3 times in wash buffer (PBS, 5 mM MgCl2, 1 mM DTT, 10 μM GDP, 1 mM EGTA, 0.2% Triton X-100) and 5x in elution buffer (40 mM HEPES pH 7.5, 150 mM NaCl, 5 mM MgCl2, 1 mM EGTA, 1 mM DTT, 10 µM GDP). Protein was eluted by three incubations with elution buffer containing peptide Ac-EEYMPME (Activotec, Comberton, UK) and cholate (first 1%, then twice 0.5%) for 20 min on ice. For GST-tagged GTPases, supernatants were incubated with glutathione Sepharose beads and were eluted with glutathione in the same manner. Proteins were concentrated in a YM-10 Centricon (Millipore) at 5000 × g, 4°C. Protein concentration and purity was determined by coomassie staining of SDS-PAGE gels. For use in the mant-GTP assay, EE-Rac 1 was expressed in BL21 (DE3) bacteria (NEB, C25271), by induction with 0.5 mM IPTG overnight at 18°C. Bacterial pellets from 500 ml cultures were resuspended in 20 ml bacterial lysis buffer (40 mM Hepes, pH 7.5 at 4°C, 150 mM NaCl, 1% Triton X-100, 5 mM MgCl2, 1 mM DTT, 300 μM GDP, 200 µM PMSF, and 20 μg/ml each of leupeptin, pepstatin A, aprotinin and antipain) and were lysed by sonication. 5 μg/ml DNAse and 5 μg/ml RNAse were added and the lysate incubated on ice for 10 min. […]

T1 sequence (Q8TCU6 whole entry, the tested form may be a part): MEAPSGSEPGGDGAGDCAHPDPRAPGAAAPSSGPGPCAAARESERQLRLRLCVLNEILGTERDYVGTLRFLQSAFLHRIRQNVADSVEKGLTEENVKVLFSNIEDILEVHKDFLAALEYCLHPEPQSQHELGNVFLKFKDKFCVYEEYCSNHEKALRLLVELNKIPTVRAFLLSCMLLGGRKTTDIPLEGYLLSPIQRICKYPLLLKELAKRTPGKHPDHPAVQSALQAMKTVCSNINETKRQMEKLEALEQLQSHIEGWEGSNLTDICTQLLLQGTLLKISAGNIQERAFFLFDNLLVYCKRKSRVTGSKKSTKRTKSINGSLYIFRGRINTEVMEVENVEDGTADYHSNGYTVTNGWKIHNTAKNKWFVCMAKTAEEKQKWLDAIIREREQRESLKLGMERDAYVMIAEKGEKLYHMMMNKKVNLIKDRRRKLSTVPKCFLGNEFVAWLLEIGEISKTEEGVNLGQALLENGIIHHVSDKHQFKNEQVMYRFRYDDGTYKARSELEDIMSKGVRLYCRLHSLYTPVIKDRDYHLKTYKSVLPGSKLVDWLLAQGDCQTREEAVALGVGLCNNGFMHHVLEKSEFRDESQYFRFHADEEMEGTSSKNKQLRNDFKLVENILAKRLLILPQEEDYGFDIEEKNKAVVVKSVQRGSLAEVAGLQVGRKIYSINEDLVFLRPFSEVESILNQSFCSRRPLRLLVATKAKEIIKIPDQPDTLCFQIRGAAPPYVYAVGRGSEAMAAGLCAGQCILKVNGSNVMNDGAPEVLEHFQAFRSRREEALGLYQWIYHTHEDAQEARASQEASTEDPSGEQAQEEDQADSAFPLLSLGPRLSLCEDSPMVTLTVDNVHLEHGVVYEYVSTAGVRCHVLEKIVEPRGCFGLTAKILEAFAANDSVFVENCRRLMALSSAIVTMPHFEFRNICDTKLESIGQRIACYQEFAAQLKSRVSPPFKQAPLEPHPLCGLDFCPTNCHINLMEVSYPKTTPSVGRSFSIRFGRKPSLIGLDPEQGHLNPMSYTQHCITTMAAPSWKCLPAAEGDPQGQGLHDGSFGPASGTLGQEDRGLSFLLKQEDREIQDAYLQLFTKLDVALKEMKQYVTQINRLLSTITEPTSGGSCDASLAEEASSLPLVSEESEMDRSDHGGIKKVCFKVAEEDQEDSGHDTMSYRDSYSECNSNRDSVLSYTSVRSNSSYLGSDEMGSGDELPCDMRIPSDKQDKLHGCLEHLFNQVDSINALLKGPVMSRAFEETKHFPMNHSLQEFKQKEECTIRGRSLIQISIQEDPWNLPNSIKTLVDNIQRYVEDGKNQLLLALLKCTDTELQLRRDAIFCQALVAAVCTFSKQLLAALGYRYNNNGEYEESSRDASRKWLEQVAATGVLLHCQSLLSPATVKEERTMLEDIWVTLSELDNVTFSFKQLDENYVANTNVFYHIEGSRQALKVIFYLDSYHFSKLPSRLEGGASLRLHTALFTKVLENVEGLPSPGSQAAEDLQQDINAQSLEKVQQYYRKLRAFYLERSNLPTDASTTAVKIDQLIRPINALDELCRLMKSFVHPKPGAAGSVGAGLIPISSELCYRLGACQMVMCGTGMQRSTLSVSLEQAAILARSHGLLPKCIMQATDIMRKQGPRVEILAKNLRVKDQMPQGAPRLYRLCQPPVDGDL

| SMILES | effect on PIP3-stimulated Rac-GEF activity of full-length P-Rex1 | reduction of PIP3-stimulated Rac-GEF activity of full-length P-Rex1 (10 µM, 50 nM P-Rex1, 100 nM prenylated Rac1, 10 µM PIP3) [%] |
| --- | --- | --- |
| CC1CCC(C(C)C)c2nn(C(=O)/C=C\c3ccccc3)c(-c3cccc4ccccc34)c21 (stereo not drawn) [#10] | inhibited | – |
| COc1ccc(-c2[nH]nc3c2C(c2ccc(-c4ccc(Cl)cc4)o2)C(C#N)=C(N)O3)cc1 (stereo not drawn) [PREX-in1, 6-amino-4-[5-(4-chlorophenyl)-2-furyl]-3-(4-methoxyphenyl)-2,4-dihydropyrano[2,3-c]pyrazole-5-carbonitrile] | inhibited | 56 |
